Data as given in paper PMC3986099, “Development of a Radioiodinated Triazolopyrimidine Probe for Nuclear Medical Imaging of Fatty Acid Binding Protein 4” (PLoS ONE, 2014).

Legend:
[1] = Metabolite analysis in liver and kidneys; assay type: in vivo, ddY mice; settings: 1 hr after i.v. administration, normal mice
Experimental: A saline solution (5% ethanol, v/v) of [^125I]TAP1 (1.20 MBq) was injected intravenously into the tail vein of ddY mice (males, 5 weeks old), and animals were sacrificed 1 hr post-injection. The liver and kidneys were removed and homogenized in 1 ml ice-cold 30 mM Tris-HCl buffer (pH = 8.5) containing 5 mM magnesium acetate at 4 °C. After addition of 3 ml cold methanol and vortexing, tissue samples were centrifuged (10,000×g, 5 min). The supernatants were filtered, and the filtrate was analyzed by RP-HPLC as described above.

FABP4 = biological target: T1, FABP4 (Homo sapiens, UniProt P15090); experiment: Saturation binding assay, Scatchard analysis; settings: immobilized FABP4
T1 construct: purchased Cayman Chemical Company
T1 sequence (P15090 whole entry): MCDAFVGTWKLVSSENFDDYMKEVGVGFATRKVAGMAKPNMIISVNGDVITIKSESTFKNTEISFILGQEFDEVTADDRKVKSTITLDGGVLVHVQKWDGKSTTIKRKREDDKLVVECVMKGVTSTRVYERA
Experimental: For the saturation assay, a mixture solution of [^125I]TAP1 (0.3–9.5 MBq) was prepared by mixing nonradioactive TAP1 (0.0125–0.4 µM) in interaction buffer (2.5% ethanol and 5% DMSO, v/v). Nonspecific binding was defined in the presence of 0.09 mg/ml [^125I]TAP1 including nonradioactive TAP1. After FABP4 immobilization as described above, 0.4 ml interaction buffer and 0.05 ml mixture solution were added, and the mixture was incubated at room temperature for 2 hr. After incubation, the supernatants were removed and the beads were washed with interaction buffer (5% ethanol, v/v). The radioactivity of beads in the tubes was then measured with a well-type γ-counter. The dissociation constant (K d) of [^125I]TAP1 for FABP4 was determined by Scatchard analysis using GraphPad Prism.

C6 tumors = experiment: Biodistribution in C6 bearing mice; assay type: in vivo, Balb/c nu-nu mice; settings: for Blood / Heart / Intestine / Kidney / Liver / Lung / Muscle / Pancreas / Spleen / Stomach / Tumor / T/B ratio / T/M ratio: C6 bearing mice, i.v.; for T/B ratio: tumor to blood; for T/M ratio: tumor to muscle
Experimental: C6 cells were suspended in PBS(-) followed by subcutaneous inoculation into the right hind legs of Balb/c nu-nu mice (5×10^6 cells/100 µL).
A saline solution (5% ethanol, v/v) of [^125I]TAP1 (0.06 MBq) was injected intravenously into the tail vein of C6 cell implantation model Balb/c nu-nu mice (males, 8 weeks old). The mice were sacrificed at various post-injection time points and organs, including tumor tissues, were removed. The weight and radioactivity of the organs were measured as mentioned above. Several model mice were sacrificed 3 hr after the injection by transcardial perfusion of saline (20 ml) under anesthesia with chloral hydrate. The weight and radioactivity of the removed organs, including tumor tissues, were measured as mentioned above.

[2] = tested on: 3T3-L1 preadipocytes and differentiated adipocytes; experiment: Cell uptake study in adipocytes and preadipocytes; assay type: cell-based, Murine; settings: 37 °C, 1 hr
Experimental: Murine 3T3-L1 preadipocytes were obtained from ATCC and cultured in Dulbecco's Modified Eagle Medium (Nissui Pharmaceutical Co., Ltd.) supplemented with 10% heat-inactivated fetal bovine serum, 50 U/ml penicillin and 50 μg/ml streptomycin at 37 °C in 5% CO2. For cell uptake assay, differentiation of 3T3-L1 cells was performed as described previously. Briefly, two days after confluence, the medium was replaced with DMEM containing 10% FBS and inducers ([…], 10 μg/ml insulin, 0.5 mM 3-isobutyl-1-methylxanthine and 10 μM pioglitazone hydrochloride) for 2 days. The medium was then changed to DMEM supplemented with 10% FBS, 10 μg/ml insulin and 10 μM pioglitazone hydrochloride, and then incubated for 2 days. Then, the medium was changed to DMEM supplemented with 10% FBS and 10 μM pioglitazone hydrochloride every other day. After 8-10 days, the differentiated adipocytes were used for experiments.
For the cell uptake study using adipocytes, the medium of 24-well plate, in which the differentiated adipocytes or undifferentiated 3T3-L1 cells are cultured, was removed. […] Following the measurement of the radioactivity of collected cell lysate with a well-type γ-counter, protein determination was performed. […] Binding ratios were calculated as (radioactivity in collected cells)/(total applied radioactivity)/(protein abundance) x 100 (%Dose/mg protein).

- intact form in kidneys [1]: more than 90%
- intact form in liver [1]: more than 90%
- Kd (FABP4): 69.1 ± 12.3 nM
- radioactivity accumulation in tumors (peak) (C6 tumors; 15 min after injection): 2.26±0.45 %ID/g
- radioactivity accumulation in C6 tumors (C6 tumors; 3 hr after injection): 1.37±0.24 % dose/g
- tumor accumulation, decapitation (C6 tumors; 3 hr after injection, sacrificed by decapitation): 0.85±0.18 %ID/g
- tumor accumulation, transcardial perfusion (C6 tumors; 3 hr after injection, sacrificed by transcardial perfusion): 0.96±0.18 %ID/g
- tumor to muscle ratio (C6 tumors; 3 hr after probe injection): 3.6
- Blood (C6 tumors; 5 min): 10.40±2.34 % injected dose per gram
- Heart (C6 tumors; 5 min): 3.36±0.64 % injected dose per gram
- Intestine (C6 tumors; 5 min): 2.35±0.34 % injected dose per gram
- Kidney (C6 tumors; 5 min): 29.66±2.24 % injected dose per gram
- Liver (C6 tumors; 5 min): 46.01±5.99 % injected dose per gram
- Lung (C6 tumors; 5 min): 6.76±1.12 % injected dose per gram
- Muscle (C6 tumors; 5 min): 1.05±0.33 % injected dose per gram
- Pancreas (C6 tumors; 5 min): 2.55±0.31 % injected dose per gram
- Spleen (C6 tumors; 5 min): 2.20± 0.44 % injected dose per gram
- Stomach (C6 tumors; 5 min): 0.42±0.16 % injected dose per organ
- Tumor (C6 tumors; 5 min): 1.94±0.44 % injected dose per gram
- Blood (C6 tumors; 15 min): 6.60±0.61 % injected dose per gram
- Heart (C6 tumors; 15 min): 2.45±0.41 % injected dose per gram
- Intestine (C6 tumors; 15 min): 5.08±0.95 % injected dose per gram
- Kidney (C6 tumors; 15 min): 62.82±9.70 % injected dose per gram
- Liver (C6 tumors; 15 min): 37.58±2.88 % injected dose per gram
- Lung (C6 tumors; 15 min): 4.26±0.19 % injected dose per gram
- Muscle (C6 tumors; 15 min): 0.74±0.15 % injected dose per gram
- Pancreas (C6 tumors; 15 min): 1.20±0.20 % injected dose per gram
- Spleen (C6 tumors; 15 min): 1.09±0.10 % injected dose per gram
- Stomach (C6 tumors; 15 min): 1.02±0.38 % injected dose per organ
- Tumor (C6 tumors; 15 min): 2.26±0.45 % injected dose per gram
- Blood (C6 tumors; 30 min): 4.74±1.17 % injected dose per gram
- Heart (C6 tumors; 30 min): 1.76±0.40 % injected dose per gram
- Intestine (C6 tumors; 30 min): 7.97±1.32 % injected dose per gram
- Kidney (C6 tumors; 30 min): 77.74±8.14 % injected dose per gram
- Liver (C6 tumors; 30 min): 42.20±1.51 % injected dose per gram
- Lung (C6 tumors; 30 min): 3.16±1.07 % injected dose per gram
- Muscle (C6 tumors; 30 min): 0.57±0.12 % injected dose per gram
- Pancreas (C6 tumors; 30 min): 0.88±0.13 % injected dose per gram
- Spleen (C6 tumors; 30 min): 0.84±0.14 % injected dose per gram
- Stomach (C6 tumors; 30 min): 0.60±0.13 % injected dose per organ
- Tumor (C6 tumors; 30 min): 1.63±0.38 % injected dose per gram
- Blood (C6 tumors; 60 min): 3.25±0.66 % injected dose per gram
- Heart (C6 tumors; 60 min): 1.12±0.17 % injected dose per gram
- Intestine (C6 tumors; 60 min): 11.59±0.20 % injected dose per gram
- Kidney (C6 tumors; 60 min): 71.54±8.25 % injected dose per gram
- Liver (C6 tumors; 60 min): 30.46±3.28 % injected dose per gram
- Lung (C6 tumors; 60 min): 2.19±0.52 % injected dose per gram
- Muscle (C6 tumors; 60 min): 0.37±0.05 % injected dose per gram
- Pancreas (C6 tumors; 60 min): 0.63±0.08 % injected dose per gram
- Spleen (C6 tumors; 60 min): 0.65±0.08 % injected dose per gram
- Stomach (C6 tumors; 60 min): 0.73±0.40 % injected dose per organ
- Tumor (C6 tumors; 60 min): 1.09±0.05 % injected dose per gram
- Blood (C6 tumors; 180 min): 3.29±0.40 % injected dose per gram
- Heart (C6 tumors; 180 min): 1.14±0.04 % injected dose per gram
- Intestine (C6 tumors; 180 min): 15.76±3.03 % injected dose per gram
- Kidney (C6 tumors; 180 min): 73.44±4.42 % injected dose per gram
- Liver (C6 tumors; 180 min): 33.97±4.98 % injected dose per gram
- Lung (C6 tumors; 180 min): 1.88±0.25 % injected dose per gram
- Muscle (C6 tumors; 180 min): 0.39±0.09 % injected dose per gram
- Pancreas (C6 tumors; 180 min): 0.70±0.13 % injected dose per gram
- Spleen (C6 tumors; 180 min): 0.82±0.11 % injected dose per gram
- Stomach (C6 tumors; 180 min): 0.89±0.40 % injected dose per organ
- Tumor (C6 tumors; 180 min): 1.37±0.24 % injected dose per gram
- T/B ratio (C6 tumors; 5 min): 0.19±0.04
- T/B ratio (C6 tumors; 15 min): 0.34±0.06
- T/B ratio (C6 tumors; 30 min): 0.35±0.03
- T/B ratio (C6 tumors; 60 min): 0.34±0.05
- T/B ratio (C6 tumors; 180 min): 0.42±0.04
- T/M ratio (C6 tumors; 5 min): 1.94±0.52
- T/M ratio (C6 tumors; 15 min): 3.08±0.10
- T/M ratio (C6 tumors; 30 min): 2.96±0.73
- T/M ratio (C6 tumors; 60 min): 2.95±0.41
- T/M ratio (C6 tumors; 180 min): 3.60±0.98
SMILES: O=c1cc(COc2cccc([125I])c2)[nH]c2nc(-c3ccccc3)nn12 [[^125I]TAP1]
- uptake into adipocytes (FABP4 positive) vs 3T3-L1 preadipocytes (FABP4 negative) [2]: significantly higher
